# Structures can show the parent of a compound that is named as a salt. Where two headings read alike, the source gives them in different places.
# What was measured:
# [1] = test system: MLKL phosphorylation in HT29-L23 human colorectal adenocarcinoma cells; experiment: MLKL Phosphorylation High-Content Assay; assay type: cell-based; settings: 6 h, necroptosis induced with TNFα, SMAC mimetic and Z-VAD, read-out: pMLKL (IC50)
# How it was run: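 HT29-L23 cells pretreated 30 min at 37 °C with compound (6.25 to 0.106 μM final), then necroptosis induced with TNFα 35 ng/mL, SMAC mimetic 700 nM and Z-VAD 140 nM for 6 h. Fixed cells immunostained for MLKL pS358 and imaged; IC50 and Ymax from 4-parameter logistic fit.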
# [2] = target: His-GST-TVMV-hRIPK1(1-324) (Homo sapiens (Human), UniProt Q13546); experiment: RIPK1 HTRF Binding Assay; settings: HTRF binding, 1 h at rt; read-out: RIPK1 (IC50)
# How it was run: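 HTRF probe-displacement binding: 1 nM His-GST-TVMV-hRIPK1(1-324) (baculovirus construct), 90.6 nM probe, 0.2 nM anti-GST-Tb in 20 mM HEPES, 10 mM MgCl2, 0.015% Brij-35, 4 mM DTT, 0.05 mg/mL BSA. Incubated 1 h at rt; FRET 520/495 nm ratio, inhibition relative to DMSO-only wells.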
# His-GST-TVMV-hRIPK1(1-324), sequence (Q13546 1-324): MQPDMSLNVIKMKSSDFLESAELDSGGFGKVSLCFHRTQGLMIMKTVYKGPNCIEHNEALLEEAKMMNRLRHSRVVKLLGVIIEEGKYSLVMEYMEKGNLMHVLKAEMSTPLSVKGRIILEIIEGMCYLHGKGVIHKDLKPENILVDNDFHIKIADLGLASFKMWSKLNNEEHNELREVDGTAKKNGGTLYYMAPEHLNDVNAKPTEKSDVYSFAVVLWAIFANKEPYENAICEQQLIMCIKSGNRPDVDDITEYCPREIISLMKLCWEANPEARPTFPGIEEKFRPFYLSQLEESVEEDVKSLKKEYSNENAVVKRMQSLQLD
SMILES,IC50 ([1]; Homo sapiens) [µM],IC50 [2] [µM],IC50 [1] [µM]
"CCC(=O)Nc1cn2nc(-c3cnc(OC)c(C(=O)NCc4cc(F)cc(F)c4OC4CCOCC4)c3)ccc2n1 [Example 247, N-{[3,5-difluoro-2-(oxan-4-yloxy)phenyl]methyl}-2-methoxy-5-{2-propanamidoimidazo[1,2-b]pyridazin-6-yl}pyridine-3-carboxamide]",0.002,0.002,–
"COc1ncc(-c2ccc3nc(NC(C)=O)cn3n2)cc1C(=O)N[C@@H](C)c1cc(C(F)(F)F)ccc1F [Example 106, 5-{2-acetamidoimidazo[1,2-b]pyridazin-6-yl}-N-[(1S)-1-[2-fluoro-5-(trifluoromethyl)phenyl](2,2,2-deutero)ethyl]-2-methoxypyridine-3-carboxamide]",–,0.084,0.095
"COc1nc(C)c(-c2ccc3nc(NC(C)=O)cn3n2)cc1C(=O)NC(C)c1cccc(OC(F)(F)F)c1 (stereo not shown) [Example 292, 5-{2-acetamidoimidazo[1,2-b]pyridazin-6-yl}-2-methoxy-6-methyl-N-{1-[3-(trifluoromethoxy)phenyl]ethyl}pyridine-3-carboxamide]",–,0.024,0.037
"COc1ncc(-c2ccc3nc(NC(C)=O)cn3n2)cc1C(=O)NCc1ncccc1OC1CCCC1 [Example 163, N-{[3-(cyclopentyloxy)pyridin-2-yl]methyl}-5-{2-acetamidoimidazo[1,2-b]pyridazin-6-yl}-2-methoxypyridine-3-carboxamide]",0.017,0.012,–
"CC(=O)Nc1cn2nc(-c3cncc(C(=O)NCc4cc(OCC5CC5)ccc4F)c3)ccc2n1 [Example 236, N-{[5-(cyclopropylmethoxy)-2-fluorophenyl]methyl}-5-{2-acetamidoimidazo[1,2-b]pyridazin-6-yl}pyridine-3-carboxamide]",0.18,0.095,–
"[2H]C([2H])([2H])Oc1nc(C)c(-c2ccc3nc(NC(C)=O)cn3n2)cc1C(=O)NC(C)c1ccccc1OC(F)(F)F (single isomer, unassigned) [Example 13-1, 5-{2-acetamidoimidazo[1,2-b]pyridazin-6-yl}-2-(D3)methoxy-6-methyl-N-{1-[2-(trifluoromethoxy)phenyl]ethyl}pyridine-3-carboxamide]",–,0.986,> 6.25
"COc1ncc(-c2ccc3nc(NC(=O)C(C)(C)C#N)cn3n2)cc1C(=O)NCc1cc(OCC2CC2)ccc1F [Example 29, 5-[2-(2-cyano-2,2-dimethylacetamido)imidazo[1,2-b]pyridazin-6-yl]-N-{[5-(cyclopropylmethoxy)-2-fluorophenyl]methyl}-2-methoxypyridine-3-carboxamide]",0.45,0.257,–
"CC(=O)Nc1cn2nc(-c3cncc(C(=O)NCc4ccccc4OCC4CC4)c3)ccc2n1 [Example 239, N-{[2-(cyclopropylmethoxy)phenyl]methyl}-5-{2-acetamidoimidazo [1,2-b]pyridazin-6-yl}pyridine-3-carboxamide]",0.158,0.013,–
"[2H]C([2H])(NC(=O)c1cc(-c2ccc3nc(NC(C)=O)cn3n2)c(C)nc1C)c1cc(C(F)(F)F)ccc1F [Example 75, 5-{2-acetamidoimidazo[1,2-b]pyridazin-6-yl}-N-{[2-fluoro-5-(trifluoromethyl)phenyl](deutero)methyl}-2,6-dimethylpyridine-3-carboxamide]",0.032,0.011,–
"COc1ncc(-c2ccc3nc(NC(C)=O)cn3n2)cc1C(=O)NC(C)c1ccccc1OC(F)(F)F (stereo not shown) [Example 139, 5-{2-acetamidoimidazo[1,2-b]pyridazin-6-yl}-2-methoxy-N-{1-[2-(trifluoro-methoxy)phenyl]ethyl}pyridine-3-carboxamide]",–,0.015,0.025
"COc1ncc(-c2ccc3nc(NC(C)=O)cn3n2)cc1C(=O)NCc1cc(F)cc(F)c1OCC1CC1 [Example 121, N-({2-[cyclopropyl(deutero)methoxy]-3,5-difluorophenyl}methyl)-5-{2-acetamidoimidazo[1,2-b]pyridazin-6-yl}-2-methoxypyridine-3-carboxamide]",–,0.003,0.009
"CC(=O)Nc1cn2nc(-c3cnc(C)c(C(=O)NCc4cccnc4OCC4CCCC4)c3)ccc2n1 [Example 217, N-{[2-(cyclopentylmethoxy)pyridin-3-yl]methyl}-5-{2-acetamidoimidazo [1,2-b]pyridazin-6-yl}-2-methylpyridine-3-carboxamide]",0.205,0.054,–
"Cc1ncc(-c2ccc3nc(NC(=O)CN4CCC(F)(F)CC4)cn3n2)cc1C(=O)NCC[C@@H](O)c1ccc(Cl)cc1 [Example 343, N-[(3R)-3-(4-chlorophenyl)-3-hydroxypropyl]-5-{2-[2-(4,4-difluoropiperidin-1-yl)acetamido]imidazo[1,2-b]pyridazin-6-yl}-2-methylpyridine-3-carboxamide]",0.024,0.009,–
"CC(=O)Nc1cn2nc(-c3cncc(C(=O)NCc4cc(F)ccc4OC4CCCC4)c3)ccc2n1 [Example 242, N-{[2-(cyclopentyloxy)-5-fluorophenyl]methyl}-5-{2-acetamidoimidazo[1,2-b]pyridazin-6-yl}pyridine-3-carboxamide]",0.011,0.004,–
"CC(=O)Nc1cn2nc(-c3cnc(C)c(C(=O)NCc4cc(C(F)(F)F)ccn4)c3)ccc2n1 [Example 191, 5-{2-acetamidoimidazo[1,2-b]pyridazin-6-yl}-2-methyl-N-{[4-(trifluoromethyl)pyridin-2-yl]methyl}pyridine-3-carboxamide]",0.086,0.938,–
"COc1nc(C)c(-c2ccc3nc(NC(C)=O)cn3n2)cc1C(=O)NCc1c(F)ccc(F)c1OC [Example 285, N-[(3,6-difluoro-2-methoxyphenyl)methyl]-5-{2-acetamidoimidazo[1,2-b]pyridazin-6-yl}-2-methoxy-6-methylpyridine-3-carboxamide]",0.023,0.017,–
"CC(=O)Nc1cn2nc(-c3ccc(C)c(C(=O)NCC[C@H](O)c4ccc(Cl)cc4)c3)ccc2n1 [Example 398, N-[(3S)-3-(4-chlorophenyl)-3-hydroxypropyl]-5-{2-acetamidoimidazo [1,2-b]pyridazin-6-yl}-2-methylbenzamide]",0.002,0.005,–
"CC(=O)Nc1cn2nc(-c3cnc(C)c(C(=O)NCc4cc(OC(F)(F)F)ccc4F)c3)ccc2n1 [Example 213, 5-{2-acetamidoimidazo[1,2-b]pyridazin-6-yl}-N-{[2-fluoro-5-(trifluoromethoxy)phenyl]methyl}-2-methylpyridine-3-carboxamide]",0.006,0.007,–
"CC(=O)Nc1cn2nc(-c3cc(C(=O)NCc4cc(F)ccc4OCC(F)(F)F)c(C)nc3C)ccc2n1 [Example 72, 5-{2-acetamidoimidazo[1,2-b]pyridazin-6-yl}-N-{[5-fluoro-2-(2,2,2-trifluoroethoxy)phenyl]methyl}-2,6-dimethylpyridine-3-carboxamide, TFA]",0.03,0.017,–
"[2H]C([2H])(NC(=O)c1cc(-c2ccc3nc(NC(C)=O)cn3n2)c(C)nc1C)c1cccc(C(F)(F)F)c1 [Example 74, 5-{2-acetamidoimidazo[1,2-b]pyridazin-6-yl}-2,6-dimethyl-N-{[3-(trifluoro-methyl)phenyl](deutero)methyl}pyridine-3-carboxamide, TFA]",0.353,0.063,–
"CC(=O)Nc1cn2nc(-c3cc(C(=O)NCc4cc(F)cc(F)c4OC4CC(C)OC(C)C4)c(C)nc3C)ccc2n1 (stereo not shown) [Example 64, N-({2-[(2,6-dimethyloxan-4-yl)oxy]-3,5-difluorophenyl}methyl)-5-{2-acetamidoimidazo[1,2-b]pyridazin-6-yl}-2,6-dimethylpyridine-3-carboxamide]",0.045,0.049,–
"COc1ncc(-c2ccc3nc(NC(C)=O)cn3n2)cc1C(=O)NCc1ccccc1OC1CCCC1 [Example 159, N-{[2-(cyclopentyloxy)phenyl]methyl}-5-{2-acetamidoimidazo[1,2-b]pyridazin-6-yl}-2-methoxypyridine-3-carboxamide]",0.006,0.003,–
"COc1c(F)cc(-c2ccc3nc(NC(C)=O)cn3n2)cc1C(=O)NCc1cc(OC(F)(F)F)ccc1F [Example 371, 5-{2-acetamidoimidazo [1,2-b]pyridazin-6-yl}-3-fluoro-N-{[2-fluoro-5-(trifluoromethoxy)phenyl]methyl}-2-methoxybenzamide]",0.015,0.005,–
"CC(=O)Nc1cn2nc(-c3cnc(C)c(C(=O)NCc4cccc(F)c4OCC4CC4)c3)ccc2n1 [Example 212, N-{[2-(cyclopropylmethoxy)-3-fluorophenyl]methyl}-5-{2-acetamidoimidazo [1,2-b]pyridazin-6-yl}-2-methylpyridine-3-carboxamide]",0.004,0.008,–
"COc1nc(C)c(-c2ccc3nc(NC(C)=O)cn3n2)cc1C(=O)NCc1cccc(F)c1OCC1CC1 [Example 299, N-{[2-(cyclopropylmethoxy)-3-fluorophenyl]methyl}-5-{2-acetamidoimidazo[1,2-b]pyridazin-6-yl}-2-methoxy-6-methylpyridine-3-carboxamide]",0.001,0.004,–
"CC(=O)Nc1cn2nc(-c3cc(C(=O)NCc4cc(OC(F)(F)F)ccc4F)cnc3C)ccc2n1 [Example 234, 5-{2-acetamidoimidazo[1,2-b]pyridazin-6-yl}-N-{[2-fluoro-5-(trifluoromethoxy)phenyl]methyl}-6-methylpyridine-3-carboxamide]",0.071,0.046,–
